Test results as given in patent US20260097047A1, “Small molecule inhibitors of the ribosome biogenesis factor NVL2” (Board of Regents, The University of Texas System, priority 2023, published 2026).
Like-named read-outs stand apart in the source and are kept apart here.

Tested on: HCT116 cells
Assay: Cell viability assay (CellTiter-Glo, 72 hours) in HCT116 human colorectal cancer cells
Format: cell-based
In short: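 2,000 cells/well adhered overnight, then compound added by digital dispenser with DMSO normalized to 0.5%. Viability read after 72 h at 37 °C by ATP-based CellTiter-Glo luminescence. IC50 from ten-point curves baseline-corrected to vehicle, five-parameter asymmetric least-squares fit.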

[1] = Table 8, analogs of scaffold drawing 43 defined by R^2, R^3, X/Y, W, read-out: Activity (IC50 class, cell viability assay)
[2] = Table 6, HCT116, 72 hours, read-out: Activity
[3] = Table 5, HCT116, 72 hours, read-out: Activity
[4] = Table 7, cell viability assay, CellTiter-Glo, 72 hours, scaffold drawing 42 with R^2, R^3, X/Y, Z, read-out: Activity
[5] = Table 9, HCT116, 72 hours, read-out: Activity
[6] = Homo sapiens, HCT-116, Table 5, HCT116, 72 hours, read-out: Activity

## CC#CCN1C(=O)c2cc(F)ccc2Sc2cc(NC(=O)C=CCO)cnc21 [—CH2CCMe; CH═CHCH2OH; CH/CF; N]
[1]
  IC50: < 500 nM

## CC#CCN1C(=O)c2cc(F)ccc2Sc2cc(NC(=O)C=CCO)ccc21 [—CH2CCMe; CH═CHCH2OH; CH/CF; CH]
[1]
  IC50: < 500 nM

## CC#CCN1C(=O)c2ccccc2Sc2cc(NC3CC4(CC(O)C4)C3)cnc21 (stereo not shown)
[2]
  IC50: < 500 nM

## CC#CCN1C(=O)c2ccccc2Sc2cc(NC(=O)C34CC(C3)C4)ccc21
[1]
  IC50: < 500 nM

## CC#CCN1C(=O)c2ccc(F)cc2Sc2cc(NC(=O)[C@@H]3C[C@H]3CO)cnc21 (relative stereo) [—CH2CCMe; trans-2-HOCH2-cPr; CF/CH; N]
[1]
  IC50: < 500 nM

## C#CCN1C(=O)c2ccccc2Sc2cc(Nc3cccnn3)cnc21
[3]
  IC50: < 500 nM

## O=C(Nc1ccc2c(c1)Sc1cc(Cl)ccc1C(=O)N2CC#CCl)C1CC1CO (racemic) [—CH2CCCl; trans-2-HOCH2-cPr; CCl/CH; CH]
[1]
  IC50: < 500 nM

## COCCN1C(=O)c2ccccc2Sc2cc(NC(=O)c3ccc(F)c(F)c3)ccc21 [—(CH2)2OMe; 3,4-F2Ph; CH/CH; S]
[4]
  IC50: 1000 to 5000 nM

## COCC1CC1C(=O)Nc1ccc2c(c1)C(C)(O)c1ccccc1C(=O)N2CC#CC1CC1 (racemic)
[5]
  IC50: < 500 nM

## COCCN1C(=O)c2ccccc2Sc2cc(NC(=O)c3ccc(OC)c(F)c3)ccc21 [—(CH2)2OMe; 3-F,4MeOPh; CH/CH; S]
[4]
  IC50: 500 to 1000 nM

## CCC/C=C/CN1C(=O)c2ccccc2Sc2cc(Nc3cc(F)ccn3)ccc21 [(E)-7-((4-Fluoropyridin-2-yl)amino)-10-(hex-2-en-1-yl)dibenzo[b,f][1,4]thiazepin-11(10H)-one]
[6]
  IC50: < 500 nM

## CC#CCN1C(=O)c2ccccc2Sc2cc(NC(=O)c3ccc4oc(=O)n(C)c4c3)cnc21
[1]
  IC50: < 500 nM

## CC#CCN1C(=O)c2ccccc2Sc2cc(NC(=O)N[C@H]3C[C@H](O)C3)cnc21 [Table 3: —CH2CCMe; trans-3-OH-cBu; CH/N]
Table 3, HCT116, 72 hours, read-out: Activity
  IC50: < 500 nM

## CC#CCN1C(=O)c2ccccc2C(C#N)c2cc(NC(=O)C34CC(OC)(C3)C4)ccc21 (stereo not shown)
[5]
  IC50: < 500 nM

## CCCC=CCN1C(=O)c2ccccc2Sc2cc(NC(=O)c3ccoc3)ccc21 [—CH2CH═CHPr; furan-3-yl; CH/CH; S]
[4]
  IC50: < 500 nM

## CC#CCN1C(=O)c2ccccc2Sc2cc(NC(=O)CC3COC3)ccc21 [—CH2CCMe; (oxetan-3-yl)CH2; CH/CH; CH]
[1]
  IC50: < 500 nM

## CC#CCN1C(=O)c2ccc(Cl)cc2Sc2cc(NC(=O)C3CCOC3)cnc21 (stereo not shown)
[1]
  IC50: < 500 nM

## O=C(Nc1ccc2c(c1)Sc1cc(Cl)ccc1C(=O)N2CC#CCl)C1CC2(CC(=NO)C2)C1 (stereo not shown)
[1]
  IC50: < 500 nM

## CC#CCN1C(=O)c2ccccc2Sc2cc(NC3CC4(COC4)C3)ccc21 [7-((2-Oxaspiro[3.3]heptan-6-yl)amino)-10-(but-2-yn-1-yl)dibenzo[b,f][1,4]thiazepin-11 (10H)-one]
Homo sapiens, HCT-116, Table 6, HCT116, 72 hours, read-out: Activity
  IC50: < 500 nM

## CO[C@H]1C[C@@H](C(=O)Nc2ccc3c(c2)C(C)(O)c2ccccc2C(=O)N3CC#CCl)C1 (stereo partly drawn) [Table 9: —CH2CCCl; cis-3-MeOcBu; CMeOH]
[5]
  IC50: < 500 nM

## C#CCOCCN1C(=O)c2ccccc2Sc2cc(NC(=O)NC3CCCCC3)ccc21 [Table 3: —(CH2)2OCH2CCH; cHex; CH/CH, 1-Cyclohexyl-3-(11-oxo-10-(2-(prop-2-yn-1-yloxy)ethyl)-10,11-dihydrodibenzo[b,f][1,4]thiazepin-7-yl) urea]
Homo sapiens, HCT-116, Table 3, HCT116, 72 hours, read-out: Activity
  IC50: < 500 nM

## CC#CCN1C(=O)c2ccccc2Sc2cc(Nc3nc(C)ccc3F)cnc21
[3]
  IC50: < 500 nM

## CC#CCN1C(=O)c2ccc(C#N)cc2Sc2cc(Nc3cccnn3)ccc21 [10-(But-2-yn-1-yl)-11-oxo-7-(pyridazin-3-ylamino)-10,11-dihydrodibenzo[b,f][1,4]thiazepine-3-carbonitrile]
[6]
  IC50: 1000 to 5000 nM

## O=C1c2ccccc2Sc2cc(NC3COC3)cnc2N1CC#CCl [Table 6: —CH2CCCl; oxetan-3-yl; CH/N; S]
[2]
  IC50: < 500 nM

## CC#CCN1C(=O)c2ccccc2Sc2cc(Nc3ncnc(C#N)c3C)ccc21 [6-((10-(But-2-yn-1-yl)-11-oxo-10,11-dihydrodibenzo[b,f][1,4]thiazepin-7-yl)amino)-5-methylpyrimidine-4-carbonitrile]
[6]
  IC50: < 500 nM
